Source: patent US4188398A, “Method for treating epilepsy” (priority 1978, dated 1980)
“Also recorded” adds a separate entry of the source.

Assays:
[1] = test system: lysin locus of actinomyces; experiment: Mutagenicity, lysin locus of actinomyces; type: cell-based; conditions: same doses
[2] = Neurotoxicity: rightening, gait, stance, muscle tone and equilibrium tests; type: in vivo; conditions: P = 0.05
Method: The neurotoxicity levels were determined by conducting rightening, gait, stance, muscle tone and equilibrium tests.

[3] = Duration of urethane-induced sleep; type: in vivo
Source text: Nembutal was used as a trunk narcotic, and urethane as a cortical narcotic.

[4] = Single versus multiple administration, antagonism to corazol (addiction / habit forming); type: in vivo
[5] = Acute toxicity, single intraperitoneal administration, 48 hours (Litchfield and Wilcockson); type: in vivo, white mice
Method: The acute toxicity of the proposed preparation was tested on white mice weighing 19 to 20 g, by single intraperitoneal administrations of 1.5- and 10-percent colloidal solutions of the anticonvulsant in a 0.5-percent solution of carboxymethyl cellulose. The animals were observed during 48 hours. In order to establish the median lethal dose (LD50), the experimental data was statistically processed using the Litchfield and Wilcockson techniques. Milontin and zarontin were analyzed in the same way.

[6] = Duration of activity, corazol test; type: in vivo, white mice
Method: Corazol convulsions and maximum electroshock tests were carried out to determine the duration of the preparation's activity. Two series of experiments were made on white mice weighing 20 to 25 g. In the first series, the preparation was introduced intraperitoneally, whereas in the second series it was introduced into the stomach through a metal probe.
The anticonvulsive action of effective doses of the proposed preparation (200 mg/kg were introduced intraperitoneally, and 400 mg/kg were introduced per os) was tested every 30 minutes on separate groups of mice, each including 100 animals. The tests were continued until complete termination of the anticonvulsive effect.

[7] = corazol, 200 mg/kg intraperitoneally

Structure (SMILES): CC(C)Oc1ccc(C2CC(=O)NC2=O)cc1 (stereo not drawn) [proposed preparation, α-/para-isopropoxyphenyl/succinimide]
- mutagenous effect [1]: weak mutagenous effect
- revertants induced [1]: no more than 41 revertants
- revertants relative to control [1]: thrice as great as that of the control
- TD50 (mean neurotoxic dose) ([2]; listed as Preparation according to invention): 720(588 to 883) mg/kg
- TD50 ([2]; in vivo, read-out: TD50 (mean neurotoxic dose)): 720 mg/kg
- Average Duration of Urethane-Induced Sleep ([3]; P = 0.05, urethane 1,000 mg/kg, proposed preparation 100 mg/kg, zarontin 150 mg/kg, milontin 100 mg/kg): 3.2 ± 1.3 min
- effect upon the duration of urethane-induced sleep ([3]; in words): no effect upon the duration of urethane-induced sleep
- habit forming properties [4]: devoid of habit forming properties
- relative toxicity ([5]; compared with milontin and zarontin): the least toxic of all; also recorded: more than two times less toxic than milontin; also recorded: one and half times less toxic than zarontin
- LD50 ([5]; intraperitoneal, white mice, P=0.05, 2880 min, listed as Preparation in accordance with invention): 2,150 (1,930 to 2,390) mg/kg
- LD50 at 48 h ([5]; mouse, in vivo, ip, intraperitoneal, white mice, P=0.05): 2150 mg/kg
- duration of effect, oral versus intraperitoneal ([6]; corazol test): lasts longer in the case of oral administration
- time after which effect totally disappears [6, 7]: three
- time of maximum anticonvulsive effect [6, 7]: 60 min
- time after which activity is gradually brought down ([6]; corazol, 400 mg/kg per os): six
- time after which effect totally disappears ([6]; corazol, 400 mg/kg per os): about eight
- time for which maximum level is maintained ([6]; corazol, 400 mg/kg per os): four and a half
- time of maximum anticonvulsive effect ([6]; corazol, 400 mg/kg per os): 90 min
